{"source": "patent US20200190136A1", "about": "“METHODS FOR GENERATING SMALL MOLECULE DEGRADERS AND DIMERIZERS” (DANA-FARBER CANCER INSTITUTE, INC., priority 2017, published 2020)", "key": {"IKZF1Δ-CRBN": {"biological_target": "T1, IKZF1Δ-CRBN (Homo sapiens, UniProt Q13422+Q96SW2, DEL197-239)", "T1 construct": "made in house; host or cells: Trichoplusia ni High-Five insect cells (baculovirus)", "T1 sequence (Q96SW2 whole entry, stated change not applied)": "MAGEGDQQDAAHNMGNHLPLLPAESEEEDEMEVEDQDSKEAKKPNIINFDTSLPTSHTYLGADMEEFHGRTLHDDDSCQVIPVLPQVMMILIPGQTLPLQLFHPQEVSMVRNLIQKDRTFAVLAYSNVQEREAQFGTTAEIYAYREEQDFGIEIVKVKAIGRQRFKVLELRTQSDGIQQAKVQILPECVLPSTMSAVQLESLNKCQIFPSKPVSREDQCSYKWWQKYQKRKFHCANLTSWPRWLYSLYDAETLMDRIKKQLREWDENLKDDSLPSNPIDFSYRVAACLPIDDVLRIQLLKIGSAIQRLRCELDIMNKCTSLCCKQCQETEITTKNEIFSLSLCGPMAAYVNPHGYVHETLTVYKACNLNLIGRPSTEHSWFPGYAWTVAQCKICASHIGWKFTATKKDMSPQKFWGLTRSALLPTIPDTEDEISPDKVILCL", "T1 sequence (Q13422 with tags, fused parts or gaps DEL197-239)": "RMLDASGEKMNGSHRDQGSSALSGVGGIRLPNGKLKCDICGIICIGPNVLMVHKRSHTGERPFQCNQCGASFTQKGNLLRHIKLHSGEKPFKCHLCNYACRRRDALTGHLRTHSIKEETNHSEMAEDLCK", "experiment": "TR-FRET CRBN-IKZF1Δ binding assay", "method": "Before TR-FRET measurements were conducted, the reactions were incubated for 15 min at RT. After excitation of terbium fluorescence at 337 nm, emission at 490 nm (terbium) and 520 nm (BODIPY) were recorded with a 70 μs delay over 600 μs to reduce background fluorescence and the reaction was followed over 30 200 second cycles of each data point using a PHERAstar FS microplate reader (BMG Labtech). The TR-FRET signal of each data point was extracted by calculating the 520/490 nm ratio. The heterobifunctional nature of small molecule degraders results in a three-body binding equilibrium complicated by potential cooperativity or avidity effects arising from protein-protein interactions (Douglass, Miller et al. 2013), all of which precludes direct interpretation of the binding data. […] The peak height of TR-FRET dBET dose response data was calculated in GraphPad Prism 7 using Area Under Curve analysis for three independent replicates (n=3) and the mean peak height and standard deviation calculated.\nThe standard deviation in IKZF1A TR-FRET compound titrations was calculated from three biological replicates (n=3) as an average of 5 technical replicates per well per experiment, or as an average of 5 technical replicates of single experiment for unlabelled protein titrations."}, "IKZF1Δ": {"biological_target": "T2, IKZF1Δ (Homo sapiens, UniProt Q13422+Q96SW2, DEL197-239)", "T2 construct": "expressed in transfected cells", "T2 sequence (Q13422 with tags, fused parts or gaps DEL197-239)": "as above", "T2 sequence (Q96SW2 whole entry, stated change not applied, the tested form may be a part)": "as the sequence (Q96SW2 whole entry, stated change not applied) above", "T2 sequence (Q16531 whole entry partner, the tested form may be a part)": "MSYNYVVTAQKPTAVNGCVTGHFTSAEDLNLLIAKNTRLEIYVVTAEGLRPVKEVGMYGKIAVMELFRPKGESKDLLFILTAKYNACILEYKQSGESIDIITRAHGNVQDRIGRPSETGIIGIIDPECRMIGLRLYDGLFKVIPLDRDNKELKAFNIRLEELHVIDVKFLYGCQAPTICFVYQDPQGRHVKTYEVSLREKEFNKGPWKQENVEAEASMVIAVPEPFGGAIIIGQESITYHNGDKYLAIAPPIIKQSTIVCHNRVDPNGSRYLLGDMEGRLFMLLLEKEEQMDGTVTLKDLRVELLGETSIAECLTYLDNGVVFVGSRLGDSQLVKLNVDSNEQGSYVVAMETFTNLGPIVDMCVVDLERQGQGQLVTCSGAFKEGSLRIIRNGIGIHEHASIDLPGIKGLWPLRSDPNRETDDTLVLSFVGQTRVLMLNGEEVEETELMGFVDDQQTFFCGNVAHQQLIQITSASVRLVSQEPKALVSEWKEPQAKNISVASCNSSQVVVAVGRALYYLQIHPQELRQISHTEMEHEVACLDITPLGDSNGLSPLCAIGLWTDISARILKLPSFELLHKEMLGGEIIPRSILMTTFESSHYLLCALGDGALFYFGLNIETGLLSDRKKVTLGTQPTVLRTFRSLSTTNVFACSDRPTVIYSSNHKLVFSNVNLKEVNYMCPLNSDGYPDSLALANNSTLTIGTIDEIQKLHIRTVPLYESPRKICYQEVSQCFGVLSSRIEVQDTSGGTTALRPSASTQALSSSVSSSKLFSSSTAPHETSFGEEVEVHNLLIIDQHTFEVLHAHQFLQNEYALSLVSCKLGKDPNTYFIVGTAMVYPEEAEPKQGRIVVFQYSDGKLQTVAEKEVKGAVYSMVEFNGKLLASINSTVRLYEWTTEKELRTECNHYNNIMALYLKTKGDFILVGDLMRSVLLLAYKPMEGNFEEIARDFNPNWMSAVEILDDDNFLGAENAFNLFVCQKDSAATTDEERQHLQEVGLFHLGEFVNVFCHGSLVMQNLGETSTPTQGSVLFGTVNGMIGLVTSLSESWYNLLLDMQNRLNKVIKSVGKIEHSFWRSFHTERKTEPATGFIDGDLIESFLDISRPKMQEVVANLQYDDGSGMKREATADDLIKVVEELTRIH", "experiment": "IKZF1Δ-EGFP fusion protein cellular degradation assay", "format": "cell-based", "conditions": "HEK293T cells", "method": "(§1) Stable cell lines expressing eGFP-protein fusion and mCherry reporter were generated using Flip-In 293 system. Plasmid (0.3 μg) and pOG44 (4.7 μg) DNA were preincubated in 100 μL of Opti-MEM I (Gibco, Life Technologies) media containing 0.05 mg/ml Lipofectamine 2000 (Invitrogen) for 20 min and added to Flip-In 293 cells containing 1.9 ml of DMEM media (Gibco, Life Technologies) per well in a 6-well plate format (Falcon, 353046). Cells were propagated after 48 h and transferred into a 10 cm^2 plate (Corning, 430165) in DMEM media containing 50 μg/ml of Hygromycin B (REF 10687010, Invitrogen) as a selection marker. […]\n(§2) Cells were seeded at 30-50% confluency in either 24, 48 or 96 well plates (3524, 3548, 3596 respectively, Costar) a day before compound treatment. Titrated compounds were incubated with cells for 5 h following trypsinisation and resuspention in DMEM media, transferred into 96-well plates (353910, Falcon) and analyzed by flow cytometer (guava easyCyte HT, Millipore). Signal from 5000 cells per well was acquired in singlicate or duplicate and the eGFP and mCherry florescence monitored. Data was analyzed using FlowJo (FlowJo, LCC). […] The eGFP protein abundance relative to mCherry was then quantified as a ten-fold amplified ratio for each individual cell using the formula: 10×eGFP/mCherry. […] Standard deviation is calculated from four replicates (n=4) unless described otherwise."}, "BRD4BD1": {"biological_target": "T3, BRD4BD1 (Homo sapiens, UniProt O60885)", "T3 construct": "expressed in transfected cells", "experiment": "BRD4BD1-EGFP/mCherry reporter cellular degradation assay (flow cytometry)", "format": "cell-based", "conditions": "BRD4BD1-EGFP reporter cells", "method": "as §1, §2"}, "BRD4": {"biological_target": "T4, BRD4 (Homo sapiens, UniProt O60885)", "T4 construct": "retains activity on endogenous full length BRD4; endogenous in cells; host or cells: HEK293T", "experiment": "Western blot of endogenous BRD4 in HEK293T cells", "format": "cell-based", "conditions": "5 hours, immunoblot", "method": "(§3) HEK293T cells were seeded at 90% confluency in 12 well plates (353043, Falcon), left to attach for 1.5 h, followed by the compound treatment for 5 h. Primary and secondary antibodies used included anti-BRD4 at 1:1000 dilution (A301-985A-M, Bethyl Laboratories), anti-BRD2 at 1:2,000 dilution (A302-582A, Bethyl Laboratories), anti-BRD3 at 1:500 dilution (ab56342, Abcam), anti-GAPDH at 1:10,000 dilution (G8795, Sigma), IRDye680 Donkey anti-mouse at 1:10,000 dilution (926-68072, LiCor) and IRDye800 Goat anti-rabbit at 1:10,000 dilution (926-32211, LiCor)."}, "BRD2 [1]": {"biological_target": "T5, BRD2 (Homo sapiens, UniProt P25440)", "T5 construct": "endogenous in cells; host or cells: HEK293T", "T5 sequence (P25440 whole entry)": "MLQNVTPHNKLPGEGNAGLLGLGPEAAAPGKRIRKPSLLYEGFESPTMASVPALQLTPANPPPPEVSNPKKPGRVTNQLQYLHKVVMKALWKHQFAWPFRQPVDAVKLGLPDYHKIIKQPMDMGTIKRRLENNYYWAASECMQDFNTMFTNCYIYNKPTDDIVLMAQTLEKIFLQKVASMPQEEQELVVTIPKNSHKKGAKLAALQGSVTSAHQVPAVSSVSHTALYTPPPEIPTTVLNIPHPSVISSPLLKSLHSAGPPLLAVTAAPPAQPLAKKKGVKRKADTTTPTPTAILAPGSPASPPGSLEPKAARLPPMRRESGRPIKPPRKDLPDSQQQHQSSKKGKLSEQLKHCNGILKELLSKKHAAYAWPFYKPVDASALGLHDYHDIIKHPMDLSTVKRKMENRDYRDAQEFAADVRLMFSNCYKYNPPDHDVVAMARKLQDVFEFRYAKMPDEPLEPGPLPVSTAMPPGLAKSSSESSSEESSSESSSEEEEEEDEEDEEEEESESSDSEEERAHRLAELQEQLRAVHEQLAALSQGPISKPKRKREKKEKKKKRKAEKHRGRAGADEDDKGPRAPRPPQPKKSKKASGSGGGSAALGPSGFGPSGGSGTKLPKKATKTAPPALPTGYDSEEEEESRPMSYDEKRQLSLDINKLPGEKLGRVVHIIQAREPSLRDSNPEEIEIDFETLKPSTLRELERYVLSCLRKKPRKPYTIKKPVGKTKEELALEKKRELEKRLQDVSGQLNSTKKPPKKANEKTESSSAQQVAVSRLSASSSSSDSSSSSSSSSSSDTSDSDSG", "experiment": "Western blot of BRD2 in HEK293T cells", "format": "cell-based", "conditions": "immunoblot", "method": "as §3"}, "BRD3 [2]": {"test_system": "BRD3", "experiment": "BRD3 bromodomain EGFP/mCherry reporter cellular degradation assay", "format": "cell-based, human", "conditions": "BRD3 bromodomain reporter cells", "method": "as §1, §2"}, "DDB1ΔB-CRBN / BRD4BD1": {"test_system": "DDB1ΔB-CRBN / BRD4BD1", "experiment": "TR-FRET dimerization assay, CRBN with BRD4BD1 wild type and mutants (peak height)", "format": "binding, human", "conditions": "BRD4BD1 Q84 mutated to R (as in BRD2) or K, reference to WT", "method": "Before TR-FRET measurements were conducted, the reactions were incubated for 15 min at RT. […] The TR-FRET signal of each data point was extracted by calculating the 520/490 nm ratio. […] The peak height of TR-FRET dBET dose response data was calculated in GraphPad Prism 7 using Area Under Curve analysis for three independent replicates (n=3) and the mean peak height and standard deviation calculated."}, "BRD3 [3]": {"biological_target": "T6, BRD3 (Homo sapiens, UniProt Q15059)", "T6 construct": "endogenous in cells; host or cells: HEK293T", "T6 sequence (Q15059 whole entry)": "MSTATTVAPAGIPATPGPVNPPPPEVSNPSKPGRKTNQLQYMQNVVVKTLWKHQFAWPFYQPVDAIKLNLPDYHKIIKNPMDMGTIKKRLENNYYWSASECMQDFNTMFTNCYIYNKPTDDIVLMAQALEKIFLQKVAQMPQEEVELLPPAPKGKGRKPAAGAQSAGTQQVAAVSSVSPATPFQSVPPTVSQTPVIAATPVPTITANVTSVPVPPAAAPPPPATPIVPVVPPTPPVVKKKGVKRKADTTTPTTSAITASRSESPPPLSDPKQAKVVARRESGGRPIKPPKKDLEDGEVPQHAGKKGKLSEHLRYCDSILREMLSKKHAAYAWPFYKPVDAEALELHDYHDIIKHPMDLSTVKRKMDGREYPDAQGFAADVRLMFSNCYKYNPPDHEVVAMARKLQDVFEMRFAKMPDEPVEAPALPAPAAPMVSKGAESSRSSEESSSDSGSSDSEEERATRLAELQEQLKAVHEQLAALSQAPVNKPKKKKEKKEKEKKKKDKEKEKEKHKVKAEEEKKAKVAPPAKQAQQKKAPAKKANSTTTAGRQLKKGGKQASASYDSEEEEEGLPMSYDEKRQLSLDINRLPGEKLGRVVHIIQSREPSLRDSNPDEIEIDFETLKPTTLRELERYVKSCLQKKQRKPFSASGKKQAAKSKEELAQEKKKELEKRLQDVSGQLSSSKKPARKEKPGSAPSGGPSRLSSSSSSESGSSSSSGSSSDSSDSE", "experiment": "Western blot of BRD3 in HEK293T cells", "format": "cell-based", "conditions": "immunoblot", "method": "as §3"}, "[4]": {"test_system": "BRD2BD1, BRD2BD2, BRD3BD1, BRD3BD2, BRD4BD1, BRD4BD2", "experiment": "EGFP/mCherry reporter cellular degradation across individual BET bromodomains", "format": "cell-based, human", "conditions": "for selectivity of BRD4 degradation over BRD2 and BRD3: EGFP/mCherry reporter assay; for degradation activity across BET bromodomains: individual bromodomains of BRD2, BRD3, BRD4", "method": "Stable cell lines expressing eGFP-protein fusion and mCherry reporter were generated using Flip-In 293 system. Plasmid (0.3 μg) and pOG44 (4.7 μg) DNA were preincubated in 100 μL of Opti-MEM I (Gibco, Life Technologies) media containing 0.05 mg/ml Lipofectamine 2000 (Invitrogen) for 20 min and added to Flip-In 293 cells containing 1.9 ml of DMEM media (Gibco, Life Technologies) per well in a 6-well plate format (Falcon, 353046). Cells were propagated after 48 h and transferred into a 10 cm^2 plate (Corning, 430165) in DMEM media containing 50 μg/ml of Hygromycin B (REF 10687010, Invitrogen) as a selection marker. Following 2-3 passage cycle FACS (FACSAria II, BD) was used to enrich for cells expressing eGFP and mCherry.\nCells were seeded at 30-50% confluency in either 24, 48 or 96 well plates (3524, 3548, 3596 respectively, Costar) a day before compound treatment. Titrated compounds were incubated with cells for 5 h following trypsinisation and resuspention in DMEM media, transferred into 96-well plates (353910, Falcon) and analyzed by flow cytometer (guava easyCyte HT, Millipore). Signal from 5000 cells per well was acquired in singlicate or duplicate and the eGFP and mCherry florescence monitored. Data was analyzed using FlowJo (FlowJo, LCC). […] The eGFP protein abundance relative to mCherry was then quantified as a ten-fold amplified ratio for each individual cell using the formula: 10×eGFP/mCherry. The median of the ratio was then calculated per set, normalized to the median of the DMSO ratio, and is denoted as relative abundance. Standard deviation is calculated from four replicates (n=4) unless described otherwise."}, "BRD2 [5]": {"test_system": "BRD2", "experiment": "BRD2 bromodomain EGFP/mCherry reporter cellular degradation assay", "format": "cell-based, human", "conditions": "BRD2 bromodomain reporter cells", "method": "as §1, §2"}, "BRD4BD1 and BRD4BD2": {"test_system": "BRD4BD1 and BRD4BD2", "conditions": "Filippakopoulos, Qi et al. 2010; cited from earlier work"}, "IKZF1, IKZF3 and ZFP91": {"test_system": "IKZF1, IKZF3 and ZFP91", "experiment": "Quantitative proteomics (TMT LC-MS3) in MM.1s cells", "format": "cell-based, human", "conditions": "1 μM, five hours", "method": "A micro-BCA assay (Pierce) was used to determine the final protein concentration in the cell lysate. […] Proteins were precipitated using methanol/chloroform. In brief, four volumes of methanol were added to the cell lysate, followed by one volume of chloroform, and finally three volumes of water."}}, "note": "“Also recorded” adds a separate entry of the source.", "data": [{"smiles": "Cc1sc2c(c1C)C(c1ccc(Cl)cc1)=N[C@@H](CC(=O)NCCCCCCCCNC(=O)COc1cccc3c1C(=O)N(C1CCC(=O)NC1=O)C3=O)c1nnc(C)n1-2", "note": "(stereo partly shown) [dBET6, reference compound]", "values": [{"measurement": "IKZF1-CRBN complex formation induced by compound", "setting": "IKZF1Δ-CRBN", "value": "do not induce IKZF1-CRBN complex formation"}, {"measurement": "cellular IKZF1 degradation", "setting": "IKZF1Δ", "value": "relatively ineffective at promoting IKZF1 degradation"}]}, {"smiles": "COC(=O)C[C@@H]1N=C(c2ccc(Cl)cc2)c2c(sc(C(=O)NCCCCCNc3cccc4c3C(=O)N(C3CCC(=O)NC3=O)C4=O)c2C)-n2c(C)nnc21", "note": "(stereo partly shown) [ZXH-03-26]", "values": [{"measurement": "degradation activity on BRD4BD1", "setting": "BRD4BD1", "value": "active on BRD4BD1"}, {"measurement": "DC50", "setting": "BRD4BD1; 5 h, read-out: DC50/5h (half-maximal degradation after 5 hours of treatment)", "value": "~5", "unit": "nM"}, {"measurement": "degradation of endogenous BRD4", "setting": "BRD4", "value": "degrades endogenous BRD4 with comparable efficacy compared to the best pan-BET degrader dBET6"}, {"measurement": "degradation of BRD2", "setting": "BRD2 [1]", "value": "inactive"}, {"measurement": "concentrations at which degradation of BRD3 is spared", "setting": "BRD3 [2]", "value": "> 10", "unit": "µM"}, {"measurement": "complex formation with CRBN (TR-FRET peak height)", "setting": "DDB1ΔB-CRBN / BRD4BD1", "value": "decreases complex formation with CRBN"}, {"measurement": "degradation of BRD3", "setting": "BRD3 [3]", "value": "inactive"}, {"measurement": "selectivity of BRD4 degradation over BRD2 and BRD3", "setting": "[4]", "value": "selectively targets BRD4 for degradation and spares BRD2 and BRD3"}, {"measurement": "degradation activity across BET bromodomains", "setting": "[4]", "value": "activity exclusively on the first bromodomain of BRD4"}, {"measurement": "concentrations at which degradation of BRD2 is spared", "setting": "BRD2 [5]", "value": "> 10", "unit": "µM"}]}, {"smiles": "COC(=O)C[C@@H]1N=C(c2ccc(Cl)cc2)c2c(sc(C(=O)NCCCCCCCCOc3ccc4c(c3)C(=O)N(C3CCC(=O)NC3=O)C4=O)c2C)-n2c(C)nnc21", "note": "(stereo partly shown) [ZXH-2-45]", "values": [{"measurement": "IKZF1-CRBN complex formation induced by compound", "setting": "IKZF1Δ-CRBN", "value": "greatly reduced compared to their nitrogen analogs"}]}, {"smiles": "Cc1sc2c(c1C)C(c1ccc(Cl)cc1)=N[C@@H](CC(=O)NCCOc1cccc3c1C(=O)N(C1CCC(=O)NC1=O)C3=O)c1nnc(C)n1-2", "note": "(stereo partly shown) [ZXH-2-42]", "values": [{"measurement": "IKZF1-CRBN complex formation induced by compound", "setting": "IKZF1Δ-CRBN", "value": "greatly reduced compared to their nitrogen analogs"}]}, {"smiles": "COC(=O)C[C@@H]1N=C(c2ccc(Cl)cc2)c2c(sc(C(=O)NCCCCNc3cccc4c3C(=O)N(C3CCC(=O)NC3=O)C4=O)c2C)-n2c(C)nnc21", "note": "(stereo partly shown) [ZXH-2-184]", "values": [{"measurement": "selectivity of BRD4 degradation over BRD2 and BRD3", "setting": "[4]", "value": "selective degradation of BRD4; also recorded: selectively targets BRD4 for degradation and spares BRD2 and BRD3"}]}, {"smiles": "Cc1ncsc1-c1ccc(CNC(=O)[C@@H]2C[C@@H](O)CN2C(=O)[C@@H](NC(=O)COCCOCCOCCNC(=O)C[C@@H]2N=C(c3ccc(Cl)cc3)c3c(sc(C)c3C)-n3c(C)nnc32)C(C)(C)C)cc1", "note": "[MZ1, reference compound]", "values": [{"measurement": "degradation activity across BET bromodomains", "setting": "[4]", "value": "activity on most bromodomains"}]}, {"smiles": "COC(=O)C[C@@H]1N=C(c2ccc(Cl)cc2)c2c(sc(C(=O)NCCCCCCCCOc3cccc4c3C(=O)N(C3CCC(=O)NC3=O)C4=O)c2C)-n2c(C)nnc21", "note": "(stereo partly shown) [ZXH-2-43]", "values": [{"measurement": "IKZF1-CRBN complex formation induced by compound", "setting": "IKZF1Δ-CRBN", "value": "greatly reduced compared to their nitrogen analogs"}]}, {"smiles": "Cc1sc2c(c1C)C(c1ccc(Cl)cc1)=N[C@@H](CC(=O)OC(C)(C)C)c1nnc(C)n1-2", "note": "[JQ1]", "values": [{"measurement": "relative affinity for BRD4BD1 and BRD4BD2", "setting": "BRD4BD1 and BRD4BD2", "value": "equal affinities"}]}, {"smiles": "COC(=O)C[C@@H]1N=C(c2ccc(Cl)cc2)c2c(sc(C(=O)NCCCCCCCCNC(=O)COc3cccc4c3C(=O)N(C3CCC(=O)NC3=O)C4=O)c2C)-n2c(C)nnc21", "note": "(stereo partly shown) [dBET23]", "values": [{"measurement": "co-degradation of CRBN-lenalidomide neo-substrates IKZF1, IKZF3 and ZFP91", "setting": "IKZF1, IKZF3 and ZFP91", "value": "not dBET23 exhibits pronounced co-degradation"}]}]}
